In the kinase profiling compilation of Christmann-Franck et al. (2016):
“And” between values parts separate entries of the source, which are not always exact repeats. Identical values can stand only once.

Legend:
Assay in all cases: radiometric filter-binding kinase assay, Kinase HotSpot
Settings in all cases: compound 0.5 µM; ATP 10 µM
MAPK3 (human) = MAPK3 (human) (UniProt P27361)
RPS6KA5 KD2 (human) = RPS6KA5 KD2 (human) (UniProt O75582)
AURKC (human) = AURKC (human) (UniProt Q9UQB9)
OXSR1 (human) = OXSR1 (human) (UniProt O95747)
CSNK2A2 (human) = CSNK2A2 (human) (UniProt P19784)
AKT1 (human) = AKT1 (human) (UniProt P31749)
CDK2 CCNE1 (human) = CDK2 CCNE1 (human) (UniProt P24941+P24864)
STK33 (human) = STK33 (human) (UniProt Q9BYT3)
PRKX (human) = PRKX (human) (UniProt P51817)
CLK2 (human) = CLK2 (human) (UniProt P49760)
HIPK3 (human) = HIPK3 (human) (UniProt Q9H422)
MAP3K8 (human) = MAP3K8 (human) (UniProt P41279)
MAPKAPK2 (human) = MAPKAPK2 (human) (UniProt P49137)
PRKG1 (human) = PRKG1 (human) (UniProt Q13976)
TYRO3 (human) = TYRO3 (human) (UniProt Q06418)
EGFR (human) = EGFR (human) (UniProt P00533)
TAOK1 (human) = TAOK1 (human) (UniProt Q7L7X3)
NUAK2 (human) = NUAK2 (human) (UniProt Q9H093)
STK16 (human) = STK16 (human) (UniProt O75716)
MAPK10 (human) = MAPK10 (human) (UniProt P53779)
MAP2K2 (human) = MAP2K2 (human) (UniProt P36507)
STK10 (human) = STK10 (human) (UniProt O94804)
TNK2 (human) = TNK2 (human) (UniProt Q07912)
PDGFRB (human) = PDGFRB (human) (UniProt P09619)
PAK6 (human) = PAK6 (human) (UniProt Q9NQU5)
PRKCB1 (human) = PRKCB1 (human) (UniProt P05771)
MELK (human) = MELK (human) (UniProt Q14680)
MST1R (human) = MST1R (human) (UniProt Q04912)
CSNK1A1 (human) = CSNK1A1 (human) (UniProt P48729)
ERBB2 (human) = ERBB2 (human) (UniProt P04626)
SIK2 (human) = SIK2 (human) (UniProt Q9H0K1)
ABL1 (human) = ABL1 (human) (UniProt P00519)
CDK6 CCND1 (human) = CDK6 CCND1 (human) (UniProt Q00534+P24385)
PAK7 (human) = PAK7 (human) (UniProt Q9P286)
[1] = system: ARAF (human), P10398 [Y301D/Y302D]
BRAF (human) = BRAF (human) (UniProt P15056)

STK16 (human), sequence (O75716 whole entry, looked up): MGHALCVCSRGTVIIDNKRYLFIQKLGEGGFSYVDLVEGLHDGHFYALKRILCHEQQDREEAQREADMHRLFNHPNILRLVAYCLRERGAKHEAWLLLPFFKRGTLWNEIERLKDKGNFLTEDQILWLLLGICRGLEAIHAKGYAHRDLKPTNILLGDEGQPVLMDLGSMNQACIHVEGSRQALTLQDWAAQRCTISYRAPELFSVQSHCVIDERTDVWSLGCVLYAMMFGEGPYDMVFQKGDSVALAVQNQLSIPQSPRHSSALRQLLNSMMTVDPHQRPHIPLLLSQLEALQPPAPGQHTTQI
SIK2 (human), sequence (Q9H0K1 whole entry, looked up): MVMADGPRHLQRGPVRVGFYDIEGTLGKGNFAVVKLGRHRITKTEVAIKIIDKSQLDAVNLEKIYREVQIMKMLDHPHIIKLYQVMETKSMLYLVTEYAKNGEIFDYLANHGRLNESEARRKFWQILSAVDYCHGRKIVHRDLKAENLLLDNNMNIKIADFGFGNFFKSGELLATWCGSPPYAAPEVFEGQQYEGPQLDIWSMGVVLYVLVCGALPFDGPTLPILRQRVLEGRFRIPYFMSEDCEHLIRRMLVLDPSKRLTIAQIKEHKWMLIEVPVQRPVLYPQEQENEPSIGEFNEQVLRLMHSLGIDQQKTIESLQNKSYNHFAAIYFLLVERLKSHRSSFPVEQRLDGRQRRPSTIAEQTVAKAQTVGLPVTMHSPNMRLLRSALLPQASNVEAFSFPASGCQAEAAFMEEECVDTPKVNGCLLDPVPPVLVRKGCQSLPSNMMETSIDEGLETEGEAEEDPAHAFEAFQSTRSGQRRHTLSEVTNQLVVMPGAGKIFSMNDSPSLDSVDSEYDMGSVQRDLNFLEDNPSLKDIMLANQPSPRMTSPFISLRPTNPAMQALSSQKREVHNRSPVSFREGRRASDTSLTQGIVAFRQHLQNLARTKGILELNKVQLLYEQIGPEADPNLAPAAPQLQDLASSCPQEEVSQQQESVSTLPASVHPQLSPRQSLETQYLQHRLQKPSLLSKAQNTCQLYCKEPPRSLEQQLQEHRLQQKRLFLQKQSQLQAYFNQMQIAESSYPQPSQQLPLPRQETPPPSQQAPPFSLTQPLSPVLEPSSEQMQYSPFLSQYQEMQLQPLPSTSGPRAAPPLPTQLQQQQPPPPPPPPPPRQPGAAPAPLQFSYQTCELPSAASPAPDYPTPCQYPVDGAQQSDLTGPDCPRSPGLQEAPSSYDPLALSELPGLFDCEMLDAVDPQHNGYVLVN
PAK7 (human), sequence (Q9P286 whole entry, looked up): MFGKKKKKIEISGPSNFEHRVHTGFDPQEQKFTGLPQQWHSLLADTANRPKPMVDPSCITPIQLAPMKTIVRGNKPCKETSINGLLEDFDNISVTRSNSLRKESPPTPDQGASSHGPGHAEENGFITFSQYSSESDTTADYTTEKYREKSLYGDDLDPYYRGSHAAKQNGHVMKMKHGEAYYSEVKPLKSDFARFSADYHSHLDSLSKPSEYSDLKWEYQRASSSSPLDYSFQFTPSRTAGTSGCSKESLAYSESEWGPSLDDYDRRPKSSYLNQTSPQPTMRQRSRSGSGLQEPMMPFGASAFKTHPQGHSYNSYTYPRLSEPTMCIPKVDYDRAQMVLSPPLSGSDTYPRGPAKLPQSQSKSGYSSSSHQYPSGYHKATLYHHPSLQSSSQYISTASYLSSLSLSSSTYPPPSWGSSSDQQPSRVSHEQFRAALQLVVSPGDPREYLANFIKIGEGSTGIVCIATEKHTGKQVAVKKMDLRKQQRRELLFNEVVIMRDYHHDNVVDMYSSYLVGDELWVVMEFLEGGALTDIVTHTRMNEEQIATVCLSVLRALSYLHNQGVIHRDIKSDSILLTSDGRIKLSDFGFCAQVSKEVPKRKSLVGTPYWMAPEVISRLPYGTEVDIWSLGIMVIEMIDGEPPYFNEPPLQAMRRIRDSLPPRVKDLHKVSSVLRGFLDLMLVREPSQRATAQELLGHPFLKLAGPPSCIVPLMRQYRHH
MELK (human), sequence (Q14680 whole entry, looked up): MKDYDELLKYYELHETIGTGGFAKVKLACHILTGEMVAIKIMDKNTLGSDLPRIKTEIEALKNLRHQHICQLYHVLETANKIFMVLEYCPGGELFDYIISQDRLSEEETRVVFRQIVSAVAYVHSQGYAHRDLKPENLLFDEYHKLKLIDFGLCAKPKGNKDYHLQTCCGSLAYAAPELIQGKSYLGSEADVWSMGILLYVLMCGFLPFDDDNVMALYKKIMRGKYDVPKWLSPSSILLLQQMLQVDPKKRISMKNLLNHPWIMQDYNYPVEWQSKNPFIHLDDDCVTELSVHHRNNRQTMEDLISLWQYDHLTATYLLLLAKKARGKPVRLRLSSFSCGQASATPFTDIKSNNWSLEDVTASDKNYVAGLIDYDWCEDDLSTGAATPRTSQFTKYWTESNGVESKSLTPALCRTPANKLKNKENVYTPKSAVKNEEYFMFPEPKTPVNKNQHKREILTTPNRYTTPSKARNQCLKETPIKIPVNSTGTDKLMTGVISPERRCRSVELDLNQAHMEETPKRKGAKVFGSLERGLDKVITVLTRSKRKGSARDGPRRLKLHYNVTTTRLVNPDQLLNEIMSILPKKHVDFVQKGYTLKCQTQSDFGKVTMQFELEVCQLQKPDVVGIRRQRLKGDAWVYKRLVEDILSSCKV
PRKCB1 (human), sequence (P05771 whole entry, looked up): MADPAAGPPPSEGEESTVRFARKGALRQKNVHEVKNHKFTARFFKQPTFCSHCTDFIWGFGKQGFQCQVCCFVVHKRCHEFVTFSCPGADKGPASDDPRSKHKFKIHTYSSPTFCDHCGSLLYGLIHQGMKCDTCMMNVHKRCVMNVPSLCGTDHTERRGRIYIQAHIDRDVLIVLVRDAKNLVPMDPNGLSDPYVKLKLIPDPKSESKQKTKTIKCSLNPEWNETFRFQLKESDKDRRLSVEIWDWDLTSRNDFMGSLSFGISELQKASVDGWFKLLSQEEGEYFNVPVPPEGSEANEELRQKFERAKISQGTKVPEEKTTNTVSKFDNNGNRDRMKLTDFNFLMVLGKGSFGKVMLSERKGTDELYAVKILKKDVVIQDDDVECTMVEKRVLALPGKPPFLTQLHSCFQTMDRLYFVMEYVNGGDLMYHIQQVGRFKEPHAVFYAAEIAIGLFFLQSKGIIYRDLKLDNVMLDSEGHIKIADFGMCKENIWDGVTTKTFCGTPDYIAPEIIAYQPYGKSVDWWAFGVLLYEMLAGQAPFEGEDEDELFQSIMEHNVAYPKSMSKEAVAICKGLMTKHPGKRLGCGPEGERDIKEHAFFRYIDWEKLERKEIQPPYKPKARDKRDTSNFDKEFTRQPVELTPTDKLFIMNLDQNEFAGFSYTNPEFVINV
HIPK3 (human), sequence (Q9H422 whole entry, looked up): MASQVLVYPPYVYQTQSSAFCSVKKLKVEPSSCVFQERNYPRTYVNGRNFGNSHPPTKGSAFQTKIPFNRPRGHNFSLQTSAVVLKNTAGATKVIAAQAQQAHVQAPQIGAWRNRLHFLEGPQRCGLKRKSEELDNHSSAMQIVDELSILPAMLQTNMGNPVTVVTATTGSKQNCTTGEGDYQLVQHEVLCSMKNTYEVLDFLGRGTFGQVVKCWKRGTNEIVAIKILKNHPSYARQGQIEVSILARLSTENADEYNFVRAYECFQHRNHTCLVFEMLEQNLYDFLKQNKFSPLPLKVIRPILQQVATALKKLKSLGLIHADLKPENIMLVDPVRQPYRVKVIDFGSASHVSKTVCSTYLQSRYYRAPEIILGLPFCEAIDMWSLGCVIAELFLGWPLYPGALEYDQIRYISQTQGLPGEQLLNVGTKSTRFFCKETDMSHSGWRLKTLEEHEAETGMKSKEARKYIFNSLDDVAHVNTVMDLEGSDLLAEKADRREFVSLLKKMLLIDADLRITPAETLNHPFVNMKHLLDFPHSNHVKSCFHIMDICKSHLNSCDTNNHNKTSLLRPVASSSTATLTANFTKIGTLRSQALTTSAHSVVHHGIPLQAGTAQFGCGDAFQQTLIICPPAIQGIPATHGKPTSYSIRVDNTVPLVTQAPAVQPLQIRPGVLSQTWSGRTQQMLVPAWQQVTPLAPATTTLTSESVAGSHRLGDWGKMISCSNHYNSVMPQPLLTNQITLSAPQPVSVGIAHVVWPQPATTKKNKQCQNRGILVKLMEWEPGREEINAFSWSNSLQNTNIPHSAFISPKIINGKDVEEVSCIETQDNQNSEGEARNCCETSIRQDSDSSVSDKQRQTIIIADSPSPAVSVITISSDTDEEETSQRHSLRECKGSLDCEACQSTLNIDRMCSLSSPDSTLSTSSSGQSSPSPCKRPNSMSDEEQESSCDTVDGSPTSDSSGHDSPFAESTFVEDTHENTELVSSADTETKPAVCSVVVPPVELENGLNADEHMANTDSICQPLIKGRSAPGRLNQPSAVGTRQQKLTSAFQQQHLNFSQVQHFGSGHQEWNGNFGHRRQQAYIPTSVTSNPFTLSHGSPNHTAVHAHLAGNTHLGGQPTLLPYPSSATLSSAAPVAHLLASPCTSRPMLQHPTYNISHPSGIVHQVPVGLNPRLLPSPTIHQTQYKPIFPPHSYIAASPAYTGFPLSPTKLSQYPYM
CSNK2A2 (human), sequence (P19784 whole entry, looked up): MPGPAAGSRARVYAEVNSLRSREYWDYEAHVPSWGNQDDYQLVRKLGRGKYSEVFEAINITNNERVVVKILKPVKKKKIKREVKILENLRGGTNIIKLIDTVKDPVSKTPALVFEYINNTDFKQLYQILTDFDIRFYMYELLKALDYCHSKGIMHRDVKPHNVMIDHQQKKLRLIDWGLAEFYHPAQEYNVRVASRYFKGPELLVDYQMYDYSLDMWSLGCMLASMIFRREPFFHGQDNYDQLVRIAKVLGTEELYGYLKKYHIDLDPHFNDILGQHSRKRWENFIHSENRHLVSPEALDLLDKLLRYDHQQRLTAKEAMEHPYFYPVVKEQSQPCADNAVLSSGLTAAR

Compound	residual activity (MAPK3 (human)) [%]	residual activity (RPS6KA5 KD2 (human)) [%]	residual activity (OXSR1 (human)) [%]	residual activity (CSNK2A2 (human)) [%]	residual activity (AKT1 (human)) [%]	residual activity (CDK2 CCNE1 (human)) [%]	residual activity (STK33 (human)) [%]	residual activity (PRKX (human)) [%]	residual activity (CLK2 (human)) [%]	residual activity (HIPK3 (human)) [%]	residual activity (MAP3K8 (human)) [%]	residual activity (MAPKAPK2 (human)) [%]	residual activity (PRKG1 (human))	residual activity (TYRO3 (human)) [%]	residual activity (TAOK1 (human)) [%]	residual activity (NUAK2 (human)) [%]	residual activity (STK16 (human)) [%]	residual activity (MAPK10 (human)) [%]	residual activity (MAP2K2 (human)) [%]	residual activity (STK10 (human)) [%]	further results
O=C1Nc2ccccc2/C1=C\c1c(Cl)[nH]c2ccccc12	109	85.5	89.1	94.3	94	79.9	105	106	92.7	100	94.3	101	92.5% and 93.6%	99.4	100	106	102	103	98.7	90.9	residual activity (AURKC (human)): 89.5%; residual activity (EGFR (human)): 97.5%; residual activity (TNK2 (human)): 98.4%; residual activity (PDGFRB (human)): 102%; residual activity (PAK6 (human)): 101%; residual activity (PRKCB1 (human)): 105%; residual activity (MELK (human)): 85.7%; residual activity (MST1R (human)): 97.5%; residual activity (CSNK1A1 (human)): 102%; residual activity (ERBB2 (human)): 97.3%; residual activity (SIK2 (human)): 103%; residual activity (ABL1 (human)): 95.2%; residual activity (CDK6 CCND1 (human)): 105%
O=c1cc(-c2cccc3c2Sc2ccccc2S3)oc(N2CCOCC2)c1	118	117	96.1	96	113	84.6	93.3	113	84.7	105	103	94.2	102% and 103%	105	107	109	95.5	93.6	81.8	97.1	residual activity (PAK7 (human)): 98.8%; residual activity (AURKC (human)): 84.9%; residual activity (EGFR (human)): 107%; residual activity (TNK2 (human)): 95.7%; residual activity (PDGFRB (human)): 102%; residual activity (PAK6 (human)): 95.6%; residual activity (PRKCB1 (human)): 103%; residual activity (MELK (human)): 99.9%; residual activity (MST1R (human)): 111%; residual activity (CSNK1A1 (human)): 94.9%; residual activity (ERBB2 (human)): 97.3%; residual activity (SIK2 (human)): 113%; residual activity (ABL1 (human)): 99.5%; residual activity (CDK6 CCND1 (human)): 98.1%
O=C1Nc2cc(Br)ccc2/C1=C1/Nc2ccccc2/C1=N\O	83.3	82.6	100	63.1	97.7	15.4	69.4	92.1	91.9	64.8	101	86.9	89% and 93.6%	81.6	98.5	73.4	64	97.9	92.4	52.8	residual activity (PAK7 (human)): 104%; residual activity (AURKC (human)): 51.8%; residual activity (EGFR (human)): 89%; residual activity [1]: 99.8%; residual activity (BRAF (human)): 98.2%; residual activity (PDGFRB (human)): 35.2%; residual activity (PAK6 (human)): 86.3%; residual activity (PRKCB1 (human)): 98.5%; residual activity (MELK (human)): 43.5%; residual activity (MST1R (human)): 98.7%; residual activity (CSNK1A1 (human)): 95.1%; residual activity (ERBB2 (human)): 102%; residual activity (SIK2 (human)): 31.1%; residual activity (CDK6 CCND1 (human)): 35.9%
O=C1Cc2c([nH]c3ccc([N+](=O)[O-])cc23)-c2ccccc2N1	93.5	107	97	64.4	107	19.6	79.9	74.5	97.7	96.6	99	77.4	94.3% and 96.8%	96.7	66.9	68.6	93.1	97.2	92.5	80.4	residual activity (PAK7 (human)): 71.4%; residual activity [1]: 96.2%; residual activity (BRAF (human)): 99.5%; residual activity (TNK2 (human)): 74.9%; residual activity (PDGFRB (human)): 87.4%; residual activity (PAK6 (human)): 101%; residual activity (PRKCB1 (human)): 105%; residual activity (MELK (human)): 71.7%; residual activity (MST1R (human)): 103%; residual activity (CSNK1A1 (human)): 103%; residual activity (ERBB2 (human)): 94.8%; residual activity (SIK2 (human)): 56.5%; residual activity (ABL1 (human)): 57.7%; residual activity (CDK6 CCND1 (human)): 16.8%
O=C(NC(NC(=S)Nc1ccc(F)c([N+](=O)[O-])c1)C(Cl)(Cl)Cl)C(c1ccccc1)c1ccccc1 (stereo not drawn)	120	113	98.3	97	118	89.2	99.6	106	93.5	105	105	96.3	100% and 109%	108	104	108	99.4	96.2	82.3	108	residual activity (PAK7 (human)): 104%; residual activity (AURKC (human)): 93.8%; residual activity (EGFR (human)): 108%; residual activity (TNK2 (human)): 98%; residual activity (PDGFRB (human)): 105%; residual activity (PAK6 (human)): 101%; residual activity (PRKCB1 (human)): 103%; residual activity (MELK (human)): 102%; residual activity (MST1R (human)): 102%; residual activity (CSNK1A1 (human)): 94.1%; residual activity (ERBB2 (human)): 94.8%; residual activity (SIK2 (human)): 112%; residual activity (ABL1 (human)): 101%; residual activity (CDK6 CCND1 (human)): 101%
Nc1nc(Nc2ccc(S(N)(=O)=O)cc2)nn1C(=S)Nc1c(F)cccc1F	78.9	68.1	67.6	81.9	103	8.92	35.1	76.3	3.81	78.2	127	91.1	85.1% and 91.3%	29.8	11.3	9.73	42.5	105	96.6	3.96	residual activity (PAK7 (human)): 43.8%; residual activity (AURKC (human)): 16.2%; residual activity [1]: 129%; residual activity (BRAF (human)): 87.2%; residual activity (TNK2 (human)): 6.41%; residual activity (PDGFRB (human)): 45.6%; residual activity (PAK6 (human)): 81.9%; residual activity (PRKCB1 (human)): 75.2%; residual activity (MELK (human)): 32.7%; residual activity (MST1R (human)): 56%; residual activity (ERBB2 (human)): 104%; residual activity (SIK2 (human)): 16.1%; residual activity (ABL1 (human)): 4.96%; residual activity (CDK6 CCND1 (human)): 2.89%
